# From article PMC6773804, “Mapping of a Regulatory Site of the Escherichia coli ADP-Glucose Pyrophosphorylase” (Frontiers in Molecular Biosciences, 2019)
# Like-named read-outs stand apart in the source and are kept apart here.
# T1: E. coli ADP-glucose pyrophosphorylase (ADP-Glc PPase) (Escherichia coli, UniProt P0A6V1, R423A)
# T1 construct: gene glgC
# T1 sequence (P0A6V1 1-431 R423A): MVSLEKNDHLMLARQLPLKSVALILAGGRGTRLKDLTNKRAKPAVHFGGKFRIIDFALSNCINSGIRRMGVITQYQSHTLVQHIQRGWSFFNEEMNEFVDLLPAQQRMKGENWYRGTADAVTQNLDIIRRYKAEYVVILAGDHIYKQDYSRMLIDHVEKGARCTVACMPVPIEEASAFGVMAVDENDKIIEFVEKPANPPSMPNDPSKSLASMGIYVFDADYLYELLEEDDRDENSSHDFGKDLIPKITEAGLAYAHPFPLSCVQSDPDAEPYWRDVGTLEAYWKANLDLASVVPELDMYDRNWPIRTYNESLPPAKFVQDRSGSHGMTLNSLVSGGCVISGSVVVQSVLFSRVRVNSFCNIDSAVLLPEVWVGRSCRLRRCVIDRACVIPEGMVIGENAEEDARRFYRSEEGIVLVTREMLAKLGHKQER
# T2: E. coli ADP-glucose pyrophosphorylase (ADP-Glc PPase) (Escherichia coli, UniProt P0A6V1, R130A)
# T2 construct: gene glgC
# T2 sequence (P0A6V1 1-431 R130A): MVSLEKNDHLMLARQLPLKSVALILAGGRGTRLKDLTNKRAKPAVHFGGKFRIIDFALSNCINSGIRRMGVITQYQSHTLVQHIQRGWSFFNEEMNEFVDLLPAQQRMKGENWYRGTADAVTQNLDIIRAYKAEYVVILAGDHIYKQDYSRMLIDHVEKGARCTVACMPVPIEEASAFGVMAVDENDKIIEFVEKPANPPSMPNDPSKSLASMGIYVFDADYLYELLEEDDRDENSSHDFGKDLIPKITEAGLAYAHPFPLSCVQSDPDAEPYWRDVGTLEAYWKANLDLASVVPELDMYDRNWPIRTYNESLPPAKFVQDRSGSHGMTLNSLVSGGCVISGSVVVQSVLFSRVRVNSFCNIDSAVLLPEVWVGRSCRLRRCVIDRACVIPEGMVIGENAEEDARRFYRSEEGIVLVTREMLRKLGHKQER
# T3: E. coli ADP-glucose pyrophosphorylase (ADP-Glc PPase) (Escherichia coli, UniProt P0A6V1, R386A)
# T3 construct: gene glgC
# T3 sequence (P0A6V1 1-431 R386A): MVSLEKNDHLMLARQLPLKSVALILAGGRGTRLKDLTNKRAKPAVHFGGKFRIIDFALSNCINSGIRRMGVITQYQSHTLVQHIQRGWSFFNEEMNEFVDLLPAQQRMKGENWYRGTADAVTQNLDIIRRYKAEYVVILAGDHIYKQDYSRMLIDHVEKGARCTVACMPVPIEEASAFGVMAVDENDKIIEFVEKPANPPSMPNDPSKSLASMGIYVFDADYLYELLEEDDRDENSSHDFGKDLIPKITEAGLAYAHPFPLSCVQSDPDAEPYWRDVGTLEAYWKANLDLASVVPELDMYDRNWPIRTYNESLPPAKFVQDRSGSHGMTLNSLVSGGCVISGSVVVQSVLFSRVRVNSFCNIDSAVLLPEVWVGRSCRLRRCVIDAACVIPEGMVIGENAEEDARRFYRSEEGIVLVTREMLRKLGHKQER
# T4: E. coli ADP-glucose pyrophosphorylase (ADP-Glc PPase) (Escherichia coli, UniProt P0A6V1)
# T4 construct: gene glgC
# T4 sequence (P0A6V1 1-431): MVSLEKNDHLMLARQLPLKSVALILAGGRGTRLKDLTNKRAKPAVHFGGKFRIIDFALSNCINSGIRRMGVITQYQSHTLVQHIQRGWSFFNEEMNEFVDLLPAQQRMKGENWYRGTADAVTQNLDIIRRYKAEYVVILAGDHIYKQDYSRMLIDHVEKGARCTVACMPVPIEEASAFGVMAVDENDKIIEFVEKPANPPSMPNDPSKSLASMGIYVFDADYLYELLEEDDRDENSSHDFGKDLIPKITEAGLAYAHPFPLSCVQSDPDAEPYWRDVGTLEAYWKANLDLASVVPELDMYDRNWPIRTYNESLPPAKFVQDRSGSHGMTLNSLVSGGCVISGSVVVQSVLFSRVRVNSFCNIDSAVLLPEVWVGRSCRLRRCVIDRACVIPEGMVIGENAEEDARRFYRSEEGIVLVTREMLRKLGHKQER
# T5: E. coli ADP-glucose pyrophosphorylase (ADP-Glc PPase) (Escherichia coli, UniProt P0A6V1, R419A)
# T5 construct: gene glgC
# T5 sequence (P0A6V1 1-431 R419A): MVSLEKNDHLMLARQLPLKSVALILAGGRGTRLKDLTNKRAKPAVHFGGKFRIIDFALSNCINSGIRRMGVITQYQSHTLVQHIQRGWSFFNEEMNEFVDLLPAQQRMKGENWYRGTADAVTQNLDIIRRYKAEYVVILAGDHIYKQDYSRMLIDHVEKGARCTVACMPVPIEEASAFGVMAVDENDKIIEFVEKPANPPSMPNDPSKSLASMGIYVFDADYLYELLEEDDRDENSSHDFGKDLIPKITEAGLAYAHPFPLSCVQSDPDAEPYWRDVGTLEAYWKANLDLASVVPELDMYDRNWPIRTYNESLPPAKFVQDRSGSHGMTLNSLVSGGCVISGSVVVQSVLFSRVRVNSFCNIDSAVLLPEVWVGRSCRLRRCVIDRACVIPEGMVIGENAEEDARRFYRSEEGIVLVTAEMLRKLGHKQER
# T6: E. coli ADP-glucose pyrophosphorylase (ADP-Glc PPase) (Escherichia coli, UniProt P0A6V1, R353A)
# T6 construct: gene glgC
# T6 sequence (P0A6V1 1-431 R353A): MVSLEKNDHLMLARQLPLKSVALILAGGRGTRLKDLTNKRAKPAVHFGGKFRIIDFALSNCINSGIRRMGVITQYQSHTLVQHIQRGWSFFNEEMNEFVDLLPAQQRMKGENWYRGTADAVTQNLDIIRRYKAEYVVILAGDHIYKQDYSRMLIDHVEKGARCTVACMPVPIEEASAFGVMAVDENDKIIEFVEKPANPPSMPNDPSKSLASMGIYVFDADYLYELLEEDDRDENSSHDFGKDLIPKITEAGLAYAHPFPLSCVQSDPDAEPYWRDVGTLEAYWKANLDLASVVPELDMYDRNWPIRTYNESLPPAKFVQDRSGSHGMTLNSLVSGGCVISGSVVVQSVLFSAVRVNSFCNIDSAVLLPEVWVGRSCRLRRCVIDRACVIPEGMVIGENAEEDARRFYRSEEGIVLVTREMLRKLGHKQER
# T7: E. coli ADP-glucose pyrophosphorylase (ADP-Glc PPase) (Escherichia coli, UniProt P0A6V1, R52K)
# T7 construct: gene glgC
# T7 sequence (P0A6V1 1-431 R52K): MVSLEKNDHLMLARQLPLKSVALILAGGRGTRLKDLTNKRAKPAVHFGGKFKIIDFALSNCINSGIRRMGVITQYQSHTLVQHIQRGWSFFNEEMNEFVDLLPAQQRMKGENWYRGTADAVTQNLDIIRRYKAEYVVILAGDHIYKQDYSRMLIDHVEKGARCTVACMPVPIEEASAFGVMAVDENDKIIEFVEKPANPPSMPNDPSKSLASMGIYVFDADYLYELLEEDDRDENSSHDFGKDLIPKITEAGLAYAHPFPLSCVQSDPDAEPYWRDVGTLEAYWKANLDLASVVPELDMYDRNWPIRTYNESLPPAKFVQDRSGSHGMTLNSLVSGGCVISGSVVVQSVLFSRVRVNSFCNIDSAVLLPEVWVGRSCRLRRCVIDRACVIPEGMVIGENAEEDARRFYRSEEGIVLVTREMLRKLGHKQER
# T8: E. coli ADP-glucose pyrophosphorylase (ADP-Glc PPase) (Escherichia coli, UniProt P0A6V1, R40A)
# T8 construct: gene glgC
# T8 sequence (P0A6V1 1-431 R40A): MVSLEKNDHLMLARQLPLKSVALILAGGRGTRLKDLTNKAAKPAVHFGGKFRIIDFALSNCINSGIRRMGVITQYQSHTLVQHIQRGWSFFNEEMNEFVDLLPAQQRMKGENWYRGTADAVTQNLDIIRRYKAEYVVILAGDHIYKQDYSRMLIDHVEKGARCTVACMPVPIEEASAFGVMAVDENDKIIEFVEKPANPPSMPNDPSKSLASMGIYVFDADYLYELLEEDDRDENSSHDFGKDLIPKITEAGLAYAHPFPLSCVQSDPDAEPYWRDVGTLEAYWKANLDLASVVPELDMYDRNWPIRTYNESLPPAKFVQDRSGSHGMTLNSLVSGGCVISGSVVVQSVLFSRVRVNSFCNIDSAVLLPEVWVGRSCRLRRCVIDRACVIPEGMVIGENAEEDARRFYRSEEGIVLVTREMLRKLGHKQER
# B1: E. coli ADP-glucose pyrophosphorylase (ADP-Glc PPase) (Escherichia coli K-12) (protein)
# chain: MVSLEKNDHLMLARQLPLKSVALILAGGRGTRLKDLTNKRAKPAVHFGGKFRIIDFALSNCINSGIRRMGVITQYQSHTLVQHIQRGWSFFNEEMNEFVDLLPAQQRMKGENWYRGTADAVTQNLDIIRRYKAEYVVILAGDHIYKQDYSRMLIDHVEKGARCTVACMPVPIEEASAFGVMAVDENDKIIEFVEKPANPPSMPNDPSKSLASMGIYVFDADYLYELLEEDDRDENSSHDFGKDLIPKITEAGLAYAHPFPLSCVQSDPDAEPYWRDVGTLEAYWKANLDLASVVPELDMYDRNWPIRTYNESLPPAKFVQDRSGSHGMTLNSLVSGGCVISGSVVVQSVLFSRVRVNSFCNIDSAVLLPEVWVGRSCRLRRCVIDRACVIPEGMVIGENAEEDARRFYRSEEGIVLVTREMLRKLGHKQER
# Assays:
# [1] = target: T1, E. coli ADP-glucose pyrophosphorylase (ADP-Glc PPase); experiment: ADP-glucose synthesis, colorimetric phosphate detection after pyrophosphatase; format: biochemical
# Description: (§1) ADP-glucose synthesis, colorimetric phosphate detection after pyrophosphatase on E. coli ADP-glucose pyrophosphorylase (ADP-Glc PPase)
# [2] = target: T2, E. coli ADP-glucose pyrophosphorylase (ADP-Glc PPase); experiment: as above; format: biochemical
# Description: as §1
# [3] = target: T3, E. coli ADP-glucose pyrophosphorylase (ADP-Glc PPase); experiment: as above; format: biochemical
# Description: as §1
# [4] = target: T4, E. coli ADP-glucose pyrophosphorylase (ADP-Glc PPase); experiment: as above; format: biochemical
# Description: as §1
# [5] = target: T5, E. coli ADP-glucose pyrophosphorylase (ADP-Glc PPase); experiment: as above; format: biochemical
# Description: as §1
# [6] = target: T6, E. coli ADP-glucose pyrophosphorylase (ADP-Glc PPase); experiment: as above; format: biochemical
# Description: as §1
# [7] = target: T4, E. coli ADP-glucose pyrophosphorylase (ADP-Glc PPase); experiment: thermal shift assay, SYPRO Orange; format: binding; conditions: read-out: dTm at 1 mM
# [8] = target: T7, E. coli ADP-glucose pyrophosphorylase (ADP-Glc PPase); experiment: ADP-glucose synthesis, colorimetric phosphate detection after pyrophosphatase; format: biochemical; conditions: read-out: PLP / A0.5 /
# Description: as §1
# [9] = target: T8, E. coli ADP-glucose pyrophosphorylase (ADP-Glc PPase); experiment: as above; format: biochemical; conditions: read-out: PLP / A0.5 /
# Description: as §1
# [10] = substrate: Nc1ncnc2c1ncn2[C@@H]1O[C@H](COP(=O)(O)OP(=O)(O)OP(=O)(O)O)[C@@H](O)[C@H]1O; experiment: as above; format: biochemical, Escherichia coli; conditions: no activator (control), 1 mM Glc1P, 10 mM MgCl2, 50 mM HEPES pH 8.0
# Protocol: One was measured in absence (control)
# [11] = activator, allosteric, 1.0 mM Glc1P, 1.5 mM ATP, 10 mM MgCl2, pH 8.0, read-out: FBP / A0.5 /
molecule,measurement,setting,value
O=P(O)(O)OC[C@H]1OC(O)(COP(=O)(O)O)[C@@H](O)[C@@H]1O (stereo partly shown) [FBP],EC50,[1]; [11],320 ± 50 µM
same,EC50,[2]; [11],67 ± 10 µM
same,EC50,[3]; [11],1000 ± 130 µM
same,EC50,[4]; [11],27 ± 9 µM
same,EC50,[5]; [11],36 ± 11 µM
same,EC50,[6]; [11],40 ± 10 µM
same,ΔTm at 1000 µM,[7],13.2 °C
Cc1ncc(COP(=O)(O)O)c(C=O)c1O [PLP],EC50,[1]; read-out: PLP / A0.5 /,0.21 ± 0.01 µM
same,EC50,[2]; read-out: PLP / A0.5 /,1.29 ± 0.23 µM
same,EC50,[8],0.22 ± 0.05 µM
same,EC50,[3]; read-out: PLP / A0.5 /,4.2 ± 0.6 µM
same,EC50,[4]; read-out: PLP / A0.5 /,0.075 ± 0.004 µM
same,EC50,[5]; read-out: PLP / A0.5 /,0.019 ± 0.005 µM
same,EC50,[6]; read-out: PLP / A0.5 /,0.16 ± 0.01 µM
same,EC50,[9],0.48 ± 0.22 µM
B1,K0.5,[10],1.75 ± 0.09 mM
